Measured values published in patent publication US11702418B2, “SOS1 inhibitors” (priority 2019, dated 2023).
Where a name gives a salt, the structure may show the parent alone. Read-outs that look alike come from different tables or passages of the source.

Experiments:
pERK in MKN1 cells = assay: cells; format: cell-based
[1] = molecular target: recombinant human SOS1 polypeptide (amino acids 560-1049) (Homo sapiens (Human), UniProt Q07889); assay: biochemical; format: binding; details: read-out: Ki, Inhibition of Labeled Tracer Binding to SOS1
recombinant human SOS1 polypeptide (amino acids 560-1049), sequence (Q07889 560-1049): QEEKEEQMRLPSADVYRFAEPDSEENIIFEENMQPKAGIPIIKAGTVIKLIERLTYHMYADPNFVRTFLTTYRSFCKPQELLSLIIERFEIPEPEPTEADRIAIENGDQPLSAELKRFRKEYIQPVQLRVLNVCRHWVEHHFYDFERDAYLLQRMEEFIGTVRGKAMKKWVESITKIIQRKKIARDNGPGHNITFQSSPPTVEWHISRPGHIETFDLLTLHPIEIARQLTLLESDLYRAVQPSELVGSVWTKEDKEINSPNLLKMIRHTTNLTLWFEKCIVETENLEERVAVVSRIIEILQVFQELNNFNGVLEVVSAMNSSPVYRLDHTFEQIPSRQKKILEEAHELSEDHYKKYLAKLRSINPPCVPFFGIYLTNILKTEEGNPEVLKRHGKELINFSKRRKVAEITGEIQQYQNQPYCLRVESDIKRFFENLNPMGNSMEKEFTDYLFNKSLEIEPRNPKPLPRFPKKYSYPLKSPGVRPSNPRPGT

[2] = Homo sapiens, MKN-1, pERK inhibition, In-Cell Western, MKN1 or H358 cells (Table 24 does not say which), 0.5-1 hour incubation, read-out: IC50
[3] = HTRF displacement, Cy5 labelled tracer, Morrison equation for competitive binding
[4] = pERK inhibition, In-Cell Western, MKN1 or H358 cells (Table 24 does not say which), 0.5-1 hour incubation, read-out: IC50

`Cc1c([C@@H](C)Nc2nnc(C)c3ccc(-n4cc5c(n4)CNC5)cc23)cccc1C(F)(F)F` [Example 10-16, (R)-7-(5,6-dihydropyrrolo[3,4-c]pyrazol-2(4H)-yl)-4-methyl-N-(1-(2-methyl-3-(trifluoromethyl)phenyl)ethyl)phthalazin-1-amine] was tested, and the IC50 (pERK in MKN1 cells; [2]) was 325 nM and the Ki [1, 3] was 7.75 nM.

Compound `Cc1c([C@@H](C)Nc2nnc(C)c3ccc(N4CCC5(CCCN5)CC4)cc23)cccc1C(F)(F)F` [Example 10-18, (R)-4-methyl-N-(1-(2-methyl-3-(trifluoromethyl)phenyl)ethyl)-7-(1,8-diazaspiro[4.5]decan-8-yl)phthalazin-1-amine] has an IC50 (pERK in MKN1 cells; [4]) of 291 nM and a Ki [1, 3] of 1.41 nM.

Work on `Cc1c([C@@H](C)Nc2nnc(C)c3ccc(N4CCC5(CCCN5C)CC4)cc23)cccc1C(F)(F)F` [Example 10-19, (R)-4-methyl-N-(1-(2-methyl-3-(trifluoromethyl)phenyl)ethyl)-7-(1-methyl-1,8-diazaspiro[4.5]decan-8-yl)phthalazin-1-amine] yielded an IC50 (pERK in MKN1 cells; [2]) of 69 nM and a Ki [1, 3] of 0.28 nM.

Compound `Cc1c([C@@H](C)Nc2nnc(C)c3ccc(N4CCNCC(F)C4)cc23)cccc1C(F)(F)F` (stereo partly drawn) [Example 10-22, 7-(6-fluoro-1,4-diazepan-1-yl)-4-methyl-N-((R)-1-(2-methyl-3-(trifluoromethyl)phenyl)ethyl)phthalazin-1-amine] has an IC50 (pERK in MKN1 cells; [2]) of 38 nM and a Ki [1, 3] of 0.45 nM.

For `Cc1c([C@@H](C)Nc2nnc(C)c3ccc(N4CCS(=O)(=O)CC4)cc23)cccc1C(F)(F)F` [Example 10-23, (R)-4-(1-methyl-4-((1-(2-methyl-3-(trifluoromethyl)phenyl)ethyl)amino)phthalazin-6-yl)thiomorpholine 1,1-dioxide], the IC50 (pERK in MKN1 cells; [2]) was 19 nM and the Ki [1, 3] was 0.42 nM.

`Cc1c([C@@H](C)Nc2nnc(C)c3ccc(OC[C@@H]4CCCN4C)cc23)cccc1C(F)(F)F` [Example 10-24, 4-methyl-N-((R)-1-(2-methyl-3-(trifluoromethyl)phenyl)ethyl)-7-(((S)-1-methylpyrrolidin-2-yl)methoxy)phthalazin-1-amine hydrochloride salt] showed an IC50 (pERK in MKN1 cells; Homo sapiens, MKN-1) of 69 nM and a Ki [1] of 1.34 nM.

In the case of `Cc1c([C@@H](C)Nc2nnc(C)c3ccc(OC[C@H]4CCCN4C)cc23)cccc1C(F)(F)F` [Example 10-25, 4-methyl-N-((R)-1-(2-methyl-3-(trifluoromethyl)phenyl)ethyl)-7-(((R)-1-methylpyrrolidin-2-yl)methoxy)phthalazin-1-amine hydrochloride salt], the IC50 (pERK in MKN1 cells; Homo sapiens, MKN-1) is reported as 103 nM and the Ki [1] is reported as 1.47 nM.

Work on `Cc1c([C@@H](C)Nc2nnc(C)c3ccc(N4CC[C@@H](N(C)C)C4)cc23)cccc1C(F)(F)F` [Example 10-26, 7-((R)-3-(dimethylamino)pyrrolidin-1-yl)-4-methyl-N-((R)-1-(2-methyl-3-(trifluoromethyl)phenyl)ethyl)phthalazin-1-amine hydrochloride salt] yielded an IC50 (pERK in MKN1 cells; Homo sapiens, MKN-1) of 164 nM and a Ki [1] of 0.47 nM.

With `Cc1c([C@@H](C)Nc2nnc(C)c3ccc(N4C5CCC4CN(C)C5)cc23)cccc1C(F)(F)F` [Example 10-28, 4-methyl-N-((R)-1-(2-methyl-3-(trifluoromethyl)phenyl)ethyl)-7-(3-methyl-3,8-diazabicyclo[3.2.1]octan-8-yl)phthalazin-1-amine hydrochloride salt] the IC50 (pERK in MKN1 cells; Homo sapiens, MKN-1) was 161 nM and the Ki [1] was 0.45 nM.

With `Cc1c([C@@H](C)Nc2nnc(C)c3ccc(N4CC5CCC(C4)N5C)cc23)cccc1C(F)(F)F` [Example 10-29, 4-methyl-N-((R)-1-(2-methyl-3-(trifluoromethyl)phenyl)ethyl)-7-(8-methyl-3,8-diazabicyclo[3.2.1]octan-3-yl)phthalazin-1-amine hydrochloride salt] the IC50 (pERK in MKN1 cells; Homo sapiens, MKN-1) was 70 nM and the Ki [1] was 0.39 nM.

`Cc1c([C@@H](C)Nc2nnc(C)c3ccc(N4CCC(N5CCC5)CC4)cc23)cccc1C(F)(F)F` [Example 10-30, (R)-7-(4-(azetidin-1-yl)piperidin-1-yl)-4-methyl-N-(1-(2-methyl-3-(trifluoromethyl)phenyl)ethyl)phthalazin-1-amine hydrochloride salt] was tested, and the IC50 (pERK in MKN1 cells; Homo sapiens, MKN-1) was 48 nM and the Ki [1] was 0.41 nM.

Work on `Cc1c([C@@H](C)Nc2nnc(C)c3ccc(N4C[C@@H]5CC[C@H]4CN5C)cc23)cccc1C(F)(F)F` [Example 10-31, 4-methyl-N-((R)-1-(2-methyl-3-(trifluoromethyl)phenyl)ethyl)-7-((1S,4S)-5-methyl-2,5-diazabicyclo[2.2.2]octan-2-yl)phthalazin-1-amine] yielded an IC50 (pERK in MKN1 cells; [2]) of 3580 nM and a Ki [1, 3] of 0.35 nM.

In the case of `Cc1c([C@@H](C)Nc2nnc(C)c3ccc(N4C[C@H]5CC[C@@H]4CN5C)cc23)cccc1C(F)(F)F` [Example 10-32, 4-methyl-N-((R)-1-(2-methyl-3-(trifluoromethyl)phenyl)ethyl)-7-((1R,4R)-5-methyl-2,5-diazabicyclo[2.2.2]octan-2-yl)phthalazin-1-amine], the IC50 (pERK in MKN1 cells; [2]) is reported as 28 nM and the Ki [1, 3] is reported as 0.2 nM.

Compound `Cc1c([C@@H](C)Nc2nnc(C)c3ccc(N4CCN(C)C5(CC5)C4)cc23)cccc1C(F)(F)F` [Example 10-33, (R)-4-methyl-N-(1-(2-methyl-3-(trifluoromethyl)phenyl)ethyl)-7-(4-methyl-4,7-diazaspiro[2.5]octan-7-yl)phthalazin-1-amine] has an IC50 (pERK in MKN1 cells; [2]) of 275 nM and a Ki [1, 3] of 0.69 nM.

`Cc1c([C@@H](C)Nc2nnc(C)c3ccc(N4CCNC5(CC5)C4)cc23)cccc1C(F)(F)F` [Example 10-34, (R)-4-methyl-N-(1-(2-methyl-3-(trifluoromethyl)phenyl)ethyl)-7-(4,7-diazaspiro[2.5]octan-7-yl)phthalazin-1-amine] showed an IC50 (pERK in MKN1 cells; [2]) of 136 nM and a Ki [1, 3] of 0.56 nM.

With `Cc1c([C@@H](C)Nc2nnc(C)c3ccc(N4CCC5(CCCN5)CC4)cc23)cccc1C(F)(F)F` [Example 10-35, (R)-4-methyl-N-(1-(2-methyl-3-(trifluoromethyl)phenyl)ethyl)-7-(1,8-diazaspiro[4.5]decan-8-yl)phthalazin-1-amine] the IC50 (pERK in MKN1 cells; [4]) was 1000 nM and the Ki [1, 3] was 0.31 nM.

For `Cc1c([C@@H](C)Nc2nnc(C)c3ccc(N4CCC5(CCNC5)CC4)cc23)cccc1C(F)(F)F` [Example 10-36, (R)-4-methyl-N-(1-(2-methyl-3-(trifluoromethyl)phenyl)ethyl)-7-(2,8-diazaspiro[4.5]decan-8-yl)phthalazin-1-amine hydrochloride salt], the IC50 (pERK in MKN1 cells; Homo sapiens, MKN-1) was 79 nM and the Ki [1] was 0.23 nM.

`Cc1c([C@@H](C)Nc2nnc(C)c3ccc(N4CCC5(CCN(C)C5)CC4)cc23)cccc1C(F)(F)F` [Example 10-37, (R)-4-methyl-N-(1-(2-methyl-3-(trifluoromethyl)phenyl)ethyl)-7-(2-methyl-2,8-diazaspiro[4.5]decan-8-yl)phthalazin-1-amine hydrochloride salt] gave an IC50 (pERK in MKN1 cells; Homo sapiens, MKN-1) of 55 nM and a Ki [1] of 0.24 nM.

In the case of `Cc1c([C@@H](C)Nc2nnc(C)c3ccc(N4CCC5(CCNC5=O)CC4)cc23)cccc1C(F)(F)F` [Example 10-38, (R)-8-(1-methyl-4-((1-(2-methyl-3-(trifluoromethyl)phenyl)ethyl)amino)phthalazin-6-yl)-2,8-diazaspiro[4.5]decan-1-one], the IC50 (pERK in MKN1 cells; [2]) is reported as 29 nM and the Ki [1, 3] is reported as 0.71 nM.

Work on `Cc1c([C@@H](C)Nc2nnc(C)c3ccc(N4CCC5(CCNCC5)C4=O)cc23)cccc1C(F)(F)F` [Example 10-39, (R)-2-(1-methyl-4-((1-(2-methyl-3-(trifluoromethyl)phenyl)ethyl)amino)phthalazin-6-yl)-2,8-diazaspiro[4.5]decan-1-one hydrochloride salt] yielded an IC50 (pERK in MKN1 cells; Homo sapiens, MKN-1) of 110 nM and a Ki [1] of 1.49 nM.

For `Cc1c([C@@H](C)Nc2nnc(C)c3ccc(N4CCC5(CCN(C)C5=O)CC4)cc23)cccc1C(F)(F)F` [Example 10-40, (R)-2-methyl-8-(1-methyl-4-((1-(2-methyl-3-(trifluoromethyl)phenyl)ethyl)amino)phthalazin-6-yl)-2,8-diazaspiro[4.5]decan-1-one], the IC50 (pERK in MKN1 cells; [2]) was 11 nM and the Ki [1, 3] was 0.43 nM.

Work on `Cc1c([C@@H](C)Nc2nnc(C)c3ccc(N4CC5(CCN(C)C5)C4)cc23)cccc1C(F)(F)F` [Example 10-41, (R)-4-methyl-N-(1-(2-methyl-3-(trifluoromethyl)phenyl)ethyl)-7-(6-methyl-2,6-diazaspiro[3.4]octan-2-yl)phthalazin-1-amine hydrochloride salt] yielded an IC50 (pERK in MKN1 cells; Homo sapiens, MKN-1) of 30 nM and a Ki [1] of 0.52 nM.

Compound `Cc1c([C@@H](C)Nc2nnc(C)c3ccc(N4CCC(C)(N(C)C)CC4)cc23)cccc1C(F)(F)F` [Example 10-42, (R)-7-(4-(dimethylamino)-4-methylpiperidin-1-yl)-4-methyl-N-(1-(2-methyl-3-(trifluoromethyl)phenyl)ethyl)phthalazin-1-amine hydrochloride salt] has an IC50 (pERK in MKN1 cells; Homo sapiens, MKN-1) of 43 nM and a Ki [1] of 0.31 nM.

`Cc1nnc(N[C@H](C)c2cccc3ccccc23)c2cc(N3CCNCC3)ccc12` [Example 10-43, (R)-4-methyl-N-(1-(naphthalen-1-yl)ethyl)-7-(piperazin-1-yl)phthalazin-1-amine formate salt] was tested, and the IC50 (pERK in MKN1 cells; Homo sapiens, MKN-1) was 138 nM and the Ki [1] was 1.13 nM.

Compound `Cc1c(C(F)F)cccc1[C@@H](C)Nc1nnc(C)c2ccc(N3CCC(N4CCC4)CC3)cc12` [Example 10-44, (R)-7-(4-(azetidin-1-yl)piperidin-1-yl)-N-(1-(3-(difluoromethyl)-2-methylphenyl)ethyl)-4-methylphthalazin-1-amine hydrochloride salt] has an IC50 (pERK in MKN1 cells; Homo sapiens, MKN-1) of 53 nM and a Ki [1] of 0.51 nM.

`Cc1c([C@@H](C)Nc2nnc(C)c3ccc(N4CC(N(C)C)C4)cc23)cccc1C(F)(F)F` [Example 10-46, (R)-7-(3-(dimethylamino)azetidin-1-yl)-4-methyl-N-(1-(2-methyl-3-(trifluoromethyl)phenyl)ethyl)phthalazin-1-amine formate salt] showed an IC50 (pERK in MKN1 cells; Homo sapiens, MKN-1) of 157 nM and a Ki [1] of 1.13 nM.

Compound `Cc1c([C@@H](C)Nc2nnc(C)c3ccc(N4CC(C)(O)C4)cc23)cccc1C(F)(F)F` [Example 10-47, (R)-3-methyl-1-(1-methyl-4-((1-(2-methyl-3-(trifluoromethyl)phenyl)ethyl)amino)phthalazin-6-yl)azetidin-3-ol] has an IC50 (pERK in MKN1 cells; [2]) of 55 nM and a Ki [1, 3] of 1.19 nM.
